Measurements as given in ChEMBL document CHEMBL5506066, “Potency-Enhanced Peptidomimetic VHL Ligands with Improved Oral Bioavailability” (J Med Chem, 2024).

Experiments:
[1] = biological target: T1, von Hippel-Lindau disease tumor suppressor (Homo sapiens, UniProt P40337)
[2] = biological target: T1, von Hippel-Lindau disease tumor suppressor; assay: biochemical
Description: Binding affinity to VHL (unknown origin)-NanoLuc fusion protein expressed in HEK293 cells assessed as apparent dissociation constant incubated for 30 mins in presence of digitonin by NanoBRET assay

T1 sequence (P40337 whole entry): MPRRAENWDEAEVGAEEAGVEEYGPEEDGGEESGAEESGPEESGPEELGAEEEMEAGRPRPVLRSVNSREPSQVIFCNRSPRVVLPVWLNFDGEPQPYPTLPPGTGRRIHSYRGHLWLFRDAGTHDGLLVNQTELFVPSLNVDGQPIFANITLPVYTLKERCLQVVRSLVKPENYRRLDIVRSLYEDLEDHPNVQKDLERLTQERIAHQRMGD

SMILES | Kd [1] [µM] | Kd [2] [µM]
CC(=O)N1CCCC[C@H]1C(=O)N1C[C@H](O)C[C@H]1C(=O)N[C@H](Cc1ccc(-c2ccccc2)cc1)C(N)=O | 10.5 | 4.9
CC(=O)N[C@@H](CCCN)C(=O)N1C[C@H](O)C[C@H]1C(=O)N[C@H](Cc1ccc(-c2ccccc2)cc1)C(N)=O | > 57.5 | 17.3
CC(=O)N[C@H](C(=O)N1C[C@H](O)C[C@H]1C(=O)N[C@H](Cc1ccc(-c2ccccc2F)cc1)C(N)=O)C(C)(C)C | 4.4 | 2.7
CC(=O)N[C@H](C(=O)N1C[C@H](O)C[C@H]1C(=O)N[C@H](Cc1ccc(-c2ccccc2)cc1)C(N)=O)C(C)(C)c1ccccc1 | 4.6 | 3.1
CSCC[C@H](NC(C)=O)C(=O)N1C[C@H](O)C[C@H]1C(=O)N[C@H](Cc1ccc(-c2ccccc2)cc1)C(N)=O | 26.6 | 8.9
CC(=O)N[C@H](C(=O)N1C[C@H](O)C[C@H]1C(=O)N[C@H](Cc1ccc(I)cc1)C(N)=O)C(C)(C)C | 6.1 | 2.6
CC(C)[C@@H](C(=O)N1C[C@H](O)C[C@H]1C(=O)N[C@H](Cc1ccc(-c2ccccc2)cc1)C(N)=O)c1cccnc1 | 24.7 | 32.1
Cc1cc(CC(=O)N2C[C@H](O)C[C@H]2C(=O)N[C@H](Cc2ccc(-c3ccccc3)cc2)C(N)=O)on1 | 46.9 | 24.4
CC(=O)N[C@H](C(=O)N1C[C@H](O)C[C@H]1C(=O)N[C@H](Cc1ccc(C(C)(C)C)cc1)C(N)=O)C(C)(C)C | > 57.5 | > 51.8
CC(=O)N[C@H](C(=O)N1C[C@H](O)C[C@H]1C(=O)NC(C(N)=O)c1ccc(-c2scnc2C)cc1)C(C)(C)C (mixture of isomers) | 5.17 | 0.5
CC(=O)N[C@H](C(=O)N1C[C@H](O)C[C@H]1C(=O)N[C@@H](C(N)=O)c1ccc(-c2scnc2C)cc1)C(C)(C)C | 1.99 | 0.21
COc1ccccc1-c1ccc(C[C@@H](NC(=O)[C@@H]2C[C@@H](O)CN2C(=O)[C@@H](NC(C)=O)C(C)(C)C)C(N)=O)cc1 | 12.2 | 4.3
NC(=O)[C@@H](Cc1ccc(-c2ccccc2)cc1)NC(=O)[C@@H]1C[C@@H](O)CN1C(=O)Cc1ccoc1 | > 57.5 | > 51.8
NC(=O)[C@@H](Cc1ccc(-c2ccccc2)cc1)NC(=O)[C@@H]1C[C@@H](O)CN1C(=O)Cc1ccccn1 | > 57.5 | > 51.8
NC(=O)[C@@H](Cc1ccc(-c2ccccc2)cc1)NC(=O)[C@@H]1C[C@@H](O)CN1C(=O)Cc1cnco1 | > 57.5 | > 51.8
Cc1ncc(CC(=O)N2C[C@H](O)C[C@H]2C(=O)N[C@H](Cc2ccc(-c3ccccc3)cc2)C(N)=O)s1 | > 57.5 | > 51.8
Cc1cn(CC(=O)N2C[C@H](O)C[C@H]2C(=O)N[C@H](Cc2ccc(-c3ccccc3)cc2)C(N)=O)nn1 | > 57.5 | > 51.8
CC(C)(C)[C@@H](C(=O)N1C[C@H](O)C[C@H]1C(=O)N[C@H](Cc1ccc(-c2ccccc2)cc1)C(N)=O)n1cc(C(=O)O)nn1 | 40.1 | 0.31
COc1ccc(-c2ccc(C[C@@H](NC(=O)[C@@H]3C[C@@H](O)CN3C(=O)[C@@H](NC(C)=O)C(C)(C)C)C(N)=O)cc2)cc1F | > 57.5 | 21.2
NC(=O)[C@@H](Cc1ccc(-c2ccccc2)cc1)NC(=O)[C@@H]1C[C@@H](O)CN1C(=O)[C@H](C1CCC1)n1cc(C2CC2)nn1 | 0.11 | 0.1
NC(=O)[C@@H](Cc1ccc(-c2ccccc2)cc1)NC(=O)[C@@H]1C[C@@H](O)CN1C(=O)Cc1cccnn1 | > 57.5 | > 51.8
NC(=O)[C@@H](Cc1ccc(-c2ccccc2)cc1)NC(=O)[C@@H]1C[C@@H](O)CN1C(=O)Cn1ccnn1 | > 57.5 | > 51.8
CC(=O)NC1(C(=O)N2C[C@H](O)C[C@H]2C(=O)N[C@H](Cc2ccc(-c3ccccc3)cc2)C(N)=O)CC1 | > 57.5 | > 51.8
CC(=O)N1CC[C@H]1C(=O)N1C[C@H](O)C[C@H]1C(=O)N[C@H](Cc1ccc(-c2ccccc2)cc1)C(N)=O | 57.5 | 48
CC(=O)N[C@H](C(=O)N1C[C@H](O)C[C@H]1C(=O)N[C@H](C(N)=O)c1ccc(-c2scnc2C)cc1)C(C)(C)C | 14 | 2.15
CC(C)[C@@H](C(=O)N1C[C@H](O)C[C@H]1C(=O)N[C@H](Cc1ccc(-c2ccccc2)cc1)C(N)=O)c1cnn(C)c1 | > 57.5 | 45.7
CC(=O)N[C@H](C(=O)N1C[C@H](O)C[C@H]1C(=O)N[C@H](Cc1ccccc1)C(N)=O)C(C)(C)C | > 57.5 | > 51.8
CC(=O)N[C@H](C(=O)N1C[C@H](O)C[C@H]1C(=O)N[C@H](Cc1ccc(-c2ccccc2)cc1)C(N)=O)C1CCOCC1 | 17.8 | 2.9
C=CC(C)(C)[C@@H](C(=O)N1C[C@H](O)C[C@H]1C(=O)N[C@H](Cc1ccc(-c2ccccc2)cc1)C(N)=O)n1cc(C2CC2)nn1 | 0.063 | 0.084
